{"source": "paper PMC12193109", "about": "“Bioprospecting for Anti-Kinetoplastid Drug Discovery from Aloysia citrodora Essential Oil” (International Journal of Molecular Sciences, 2025)", "key": {"[1]": {"test_system": "T. cruzi epimastigotes", "test": "In vitro trypanocidal activity on T. cruzi epimastigotes (alamarBlue)", "type": "cell-based, Trypanosoma cruzi", "details": "72 h; for IC50: Trypanosoma cruzi", "protocol": "In a 96-well plate, a serial dilution of the tested compounds was performed in the liver infusion tryptose medium supplemented with 10% heat-inactivated fetal bovine serum. Later, 100 µL of 5 × 10^5 cells/mL of epimastigotes was added to each well. Afterwards, 20 µL of alamarBlue® was added to each well, and the plate was maintained at 26 °C for 72 h.\n(§1) The cytotoxicity effect of the tested compounds was conducted using macrophages of the murine cell line J774.A1 (American Type Culture Collection #TIB-67) as previously described. The cells were maintained in the DMEM medium at 37 °C in a 5% CO2 humidified incubator. All the plates containing alamarBlue® were analyzed using the plate reader EnSpire Multimode Plate Reader® at excitation and emission wavelengths of 570 and 585 nm, respectively (PerkinElmer, ThermoFisher Scientific, Madrid, Spain). The IC50 (concentrations able to inhibit 50% of parasites), IC90 (concentrations able to inhibit 90% of parasites), and CC50 (concentration able to inhibit 50% of murine macrophages) values were determined for each compound by nonlinear regression using the GraphPad Prism 9 software."}, "[2]": {"test": "In vitro leishmanicidal activity on L. amazonensis promastigotes (Alamar Blue)", "type": "cell-based, Leishmania amazonensis", "details": "mouse; CC50 J774.A1 macrophages / IC50 L. amazonensis promastigotes; read-out: Selectivity SI (CC50/IC50), promastigotes", "protocol": "(§2) The assay was conducted using the Alamar Blue® method as previously described. […] In 96-well microtiter plates (Corning^TM, Corning, NY, USA), serial dilutions of the citral derivative were first prepared, and later 10^6 parasites/mL were added into each well. Subsequently, 10% Alamar Blue® was added to the entire plate. The plates were incubated for 72 h at 26 °C. The cytotoxicity effect of the tested compounds was conducted using macrophages of the murine cell line J774.A1 (American Type Culture Collection #TIB-67) as previously described. The cells were maintained in the DMEM medium at 37 °C in a 5% CO2 humidified incubator. […] The IC50 (concentrations able to inhibit 50% of parasites), IC90 (concentrations able to inhibit 90% of parasites), and CC50 (concentration able to inhibit 50% of murine macrophages) values were determined for each compound by nonlinear regression using the GraphPad Prism 9 software."}, "[3]": {"test_system": "L. amazonensis promastigotes", "test": "In vitro leishmanicidal activity on L. amazonensis promastigotes (Alamar Blue)", "type": "cell-based, Leishmania amazonensis", "details": "72 h, promastigotes, 72 h, ± SD", "protocol": "as §2"}, "[4]": {"test": "Cytotoxicity on murine macrophages", "type": "cell-based", "details": "mouse, ± SD", "protocol": "as §1"}, "[5]": {"test": "In vitro leishmanicidal activity on L. amazonensis intracellular amastigotes", "type": "cell-based, Leishmania amazonensis", "details": "mouse; CC50 J774.A1 macrophages / IC50 L. amazonensis amastigotes; read-out: Selectivity SI (CC50/IC50), amastigotes"}, "[6]": {"test_system": "L. amazonensis intracellular amastigotes", "test": "In vitro leishmanicidal activity on L. amazonensis intracellular amastigotes", "type": "cell-based, Leishmania amazonensis", "details": "Leishmania amazonensis; intracellular amastigotes; ± SD"}, "[7]": {"test_system": "L. amazonensis promastigotes", "test": "Mitochondrial membrane potential (JC-1 staining)", "type": "cell-based, Leishmania amazonensis", "details": "IC90, 24 h, JC-1 red/green fluorescence ratio", "protocol": "The effect of compound 9 to modulate cell features was studied in the L. amazonensis parasites using various specific commercial kits. Parasite cells were incubated with the compound at the previously calculated IC90 for 24 h. Subsequently, cells were washed and submitted to different treatments as mentioned by the manufacturer’s instructions. In all the assays, the plate reader EnSpire Multimode Plate Reader® (PerkinElmer, ThermoFisher Scientific, Madrid, Spain) and/or the image base system fluorescence microscope EVOS M5000 (version 1.5.1500.493) were used for fluorescence intensity quantification. […]\nTo evaluate the damage caused by the tested compound on mitochondrial function, mitochondrial membrane potential, the adenosine triphosphate (ATP) level, and reactive oxygen species (ROS) were measured as follows: The evaluation of the mitochondrial membrane potential was carried out using the JC-1 assay. JC-1 is a specific stain of the mitochondria which fluorescence emission depends on the mitochondrial membrane potential. In healthy mitochondria, JC-1 agglomerates and emits red fluorescence, while unhealthy ones remain as a monomer and emit green fluorescence. […]"}, "[8]": {"test_system": "L. amazonensis", "test": "ATP level (CellTiter-Glo luminescence)", "type": "cell-based, Leishmania amazonensis", "details": "IC90, 24 h", "protocol": "(§3) The effect of compound 9 to modulate cell features was studied in the L. amazonensis parasites using various specific commercial kits. Parasite cells were incubated with the compound at the previously calculated IC90 for 24 h. Subsequently, cells were washed and submitted to different treatments as mentioned by the manufacturer’s instructions. In all the assays, the plate reader EnSpire Multimode Plate Reader® (PerkinElmer, ThermoFisher Scientific, Madrid, Spain) and/or the image base system fluorescence microscope EVOS M5000 (version 1.5.1500.493) were used for fluorescence intensity quantification. For each protocol, images of representative population cells were obtained using the inverted confocal microscope Leica DMI 4000 B with the Leica Application Suite X 3.5.5.19976 software and Leica HC PL APO 63x/1.40 OIL CS2 Objective (Barcelona, Spain).\nThe adenosine triphosphate (ATP) level was measured using the CellTiter-Glo Luminescent Cell Viability Assay (Promega, Madrid, Spain). The mitochondrion in which most cellular oxidations occur is considered the main source of cell ATP, and any damage and/or malfunction of this organelle generate the depletion of ATP levels."}, "[9]": {"test_system": "L. amazonensis", "test": "Intracellular ROS (CellROX Deep Red)", "type": "cell-based, Leishmania amazonensis", "details": "IC90, 24 h", "protocol": "as §3, with “Parasite” for “The effect of compound 9 to modulate cell features was studied in the L. amazonensis parasites using various specific commercial kits. Parasite”, “Spain). The measure of reactive oxygen species (ROS) was measured after treatment for 24 h using the CellROX® Deep Red fluorescent probe (Invitrogen, Madrid, Spain). The mitochondrion constitute an essential organelle to neutralize the reactive oxygen species; the malfunction of this organelle would generate an imbalance between the antioxidants and the reactive oxygen.” for “Spain).”"}, "[10]": {"test_system": "L. amazonensis", "test": "Plasma membrane permeability (SYTOX Green)", "type": "cell-based, Leishmania amazonensis", "details": "IC90, 24 h", "protocol": "as §3\nSYTOX^TM Green (Life Technologies, Madrid, Spain), a cell-impermeable DNA-binding stain, was used to evaluate membrane permeability and integrity. The assay was conducted as detailed in the manufacture instructions and as previously described."}, "[11]": {"test_system": "L. amazonensis promastigotes", "test": "Double stain assay (Hoechst 33342/PI) for programmed cell death", "type": "cell-based, Leishmania amazonensis", "details": "IC90, 24 h", "protocol": "as §3\nTo identify the type of cell death occurring in treated Leishmania amazonensis, the Hoechst 33342 and propidium iodide (PI) dyes were employed. […] Post-treatment, three distinct staining patterns could be observed: blue fluorescence indicating cells […]; violet coloration resulting from the merge of blue and red fluorescence, representing late apoptotic cells; and red fluorescence corresponding to dead cells."}, "[12]": {"details": "Leishmania amazonensis, Alamar Blue, read-out: L. amazonensis IC50"}, "[13]": {"details": "Leishmania amazonensis, read-out: L. amazonensis Promastigotes IC50"}}, "note": "Read-outs that look alike come from different tables or passages of the source.", "data": [{"smiles": "O=C(Cn1ccnc1[N+](=O)[O-])NCc1ccccc1", "note": "[Benznidazole, reference compound]", "values": [{"measurement": "IC50", "setting": "[1]", "value": 1.81, "unit": "µM"}, {"measurement": "IC50", "setting": "[1]; alamarBlue, ± SD", "value": "1.81 ± 0.5", "unit": "µg/mL"}]}, {"smiles": "CC(C)=CCCC(C)=CC=O", "note": "[Compound 1, 3,7-dimethyl-2,6-octadienal]", "values": [{"measurement": "selectivity ratio", "setting": "[2]", "value": 6.97}, {"measurement": "IC50", "setting": "[3]; [12]", "value": 10.9, "unit": "µg/mL"}, {"measurement": "L. amazonensis IC50", "setting": "[3]; Alamar Blue, listed as Citral (1)", "value": "8.47 ± 4.59", "unit": "µg/mL"}, {"measurement": "T. cruzi IC50", "setting": "[1]; alamarBlue, ± SD, listed as Citral (1)", "value": "12.90 ± 1.92", "unit": "µg/mL"}, {"measurement": "IC50", "setting": "[1]", "value": 12.9, "unit": "µM"}, {"measurement": "IC50", "setting": "[1]; alamarBlue, ± SD", "value": 24.8, "unit": "µg/mL"}, {"measurement": "CC50", "setting": "[4]; J774.A1 macrophage cell line", "value": "> 300", "unit": "µM"}]}, {"smiles": "CC(C)=CCC/C(C)=C/C=NO", "note": "[Compound 2, citral oxime]", "values": [{"measurement": "selectivity ratio", "setting": "[2]", "value": 12.6}, {"measurement": "IC50", "setting": "[3]; [13]", "value": "40.8 ± 19.4", "unit": "µM"}, {"measurement": "selectivity ratio", "setting": "[5]", "value": 9.39}, {"measurement": "IC50", "setting": "[6]", "value": "56.9 ± 19.1", "unit": "µM"}, {"measurement": "CC50", "setting": "[4]; J774.A1 macrophage cell line", "value": "> 300", "unit": "µM"}]}, {"smiles": "CC(=O)ON=C/C=C(\\C)CCC=C(C)C", "note": "[Compound 3, citral oxime acetate]", "values": [{"measurement": "IC50", "setting": "[3]; [13]", "value": "> 100", "unit": "µM"}]}, {"smiles": "CCCC(=O)ON=C/C=C(\\C)CCC=C(C)C", "note": "[Compound 4, citral oxime butyrate]", "values": [{"measurement": "IC50", "setting": "[3]; [13]", "value": "> 100", "unit": "µM"}]}, {"smiles": "CC(C)=CCC/C(C)=C/C=NOC(=O)c1ccccc1", "note": "[Compound 5, citral oxime benzoate]", "values": [{"measurement": "selectivity ratio", "setting": "[2]", "value": 10.4}, {"measurement": "IC50", "setting": "[3]; [13]", "value": "29.3 ± 8.07", "unit": "µM"}, {"measurement": "CC50", "setting": "[4]; J774.A1 macrophage cell line", "value": "> 300", "unit": "µM"}]}, {"smiles": "CC(C)=CCC/C(C)=C/C=NOC(=O)c1ccc([N+](=O)[O-])cc1", "note": "[Compound 6, citral oxime 4-nitrobenzoate]", "values": [{"measurement": "selectivity ratio", "setting": "[2]", "value": 9.25}, {"measurement": "IC50", "setting": "[3]; [13]", "value": "34.2 ± 14.4", "unit": "µM"}, {"measurement": "CC50", "setting": "[4]; J774.A1 macrophage cell line", "value": "> 300", "unit": "µM"}]}, {"smiles": "CC(C)=CCC/C(C)=C/C=NNC(N)=O", "note": "[Compound 7, citral semicarbazone]", "values": [{"measurement": "selectivity ratio", "setting": "[2]", "value": 9.29}, {"measurement": "IC50", "setting": "[3]; [13]", "value": "43.8 ± 12.1", "unit": "µM"}, {"measurement": "CC50", "setting": "[4]; J774.A1 macrophage cell line", "value": "> 300", "unit": "µM"}]}, {"smiles": "CC(C)=CCCC(C)=CC=NNc1ccc([N+](=O)[O-])cc1[N+](=O)[O-]", "note": "[Compound 9, citral 2,4-dinitrophenylhydrazone]", "values": [{"measurement": "selectivity ratio", "setting": "[2]", "value": 2.98}, {"measurement": "IC50", "setting": "[3]; [13]", "value": "10.6 ± 4.78", "unit": "µM"}, {"measurement": "selectivity ratio", "setting": "[5]", "value": 1.47}, {"measurement": "IC50", "setting": "[6]", "value": "21.4 ± 0.65", "unit": "µM"}, {"measurement": "CC50", "setting": "[4]; murine macrophages J774.A1", "value": "31.6 ± 1.96", "unit": "µM"}, {"measurement": "Decrease of mitochondrial membrane potential in comparison with untreated cells", "setting": "[7]", "value": 50, "unit": "%"}, {"measurement": "Reduction in ATP production in comparison to the negative controls", "setting": "[8]", "value": 46.35, "unit": "%"}, {"measurement": "Intracellular ROS level (in words)", "setting": "[9]", "value": "significant increase in emitted fluorescence"}, {"measurement": "Effect on plasma membrane permeability (in words)", "setting": "[10]", "value": "can affect the cell’s membrane permeability"}, {"measurement": "Type of cell death (in words)", "setting": "[11]", "value": "induction of mitochondrial-dependent apoptosis"}]}, {"smiles": "CCCCCCCCCCCCCCCCOP(=O)([O-])OCC[N+](C)(C)C", "note": "[Miltefosine, reference compound]", "values": [{"measurement": "selectivity ratio", "setting": "[2]", "value": 11.2}, {"measurement": "IC50", "setting": "[3]; [12]", "value": "2.64 ± 0.09", "unit": "µg/mL"}, {"measurement": "IC50", "setting": "[3]; read-out: L. amazonensis Promastigotes IC50", "value": 2.64, "unit": "µM"}, {"measurement": "selectivity ratio", "setting": "[5]", "value": 23.1}, {"measurement": "IC50", "setting": "[6]", "value": "3.12 ± 0.3", "unit": "µM"}, {"measurement": "CC50", "setting": "[4]; J774.A1 macrophage cell line", "value": "72.2 ± 8.85", "unit": "µM"}, {"measurement": "Decrease of mitochondrial membrane potential in comparison with untreated cells", "setting": "[7]", "value": 75, "unit": "%"}, {"measurement": "Reduction in ATP production in comparison to the negative controls", "setting": "[8]", "value": 74.11, "unit": "%"}, {"measurement": "Effect on plasma membrane permeability (in words)", "setting": "[10]", "value": "greater degree of damage to membrane permeability compared to compound 9"}]}]}
